Measurements: patent US20120322060A1, “DIAGNOSIS AND MONITORING TREATMENT OF PSYCHIATRIC DISEASES WITH SPADIN AND RELATED METHODS” (CENTRE NATIONAL DE LE RECHERCHE SCIENTIFIQUE - CNRS -, priority 2011, published 2012)
No end group written: not given here.

How the values were obtained:
Type in all cases: in vivo, mouse
DRN 5-HT neurons = experiment: Extracellular unitary recordings of DRN 5-HT neurons in mice; settings: 10^-5 M in 100 μl bolus i.p.
Procedure: As previously described, single-barreled glass micropipettes (recording electrodes) were filled with a 2 M NaCl solution saturated with Fast Green FCF, resulting in an impedance of 2-5 MΩ. Mice were anaesthetized with chloral hydrate (400 mg/kg, i.p., using a 2% solution), and placed in a stereotaxic frame equipped with the Stoelting “just for mouse” adaptor. Electrodes were positioned 0.5-1 mm posterior to the interaural line on the midline, and were then lowered into the DRN, usually attained at a depth of 2.5 mm from the brain surface. 5-HT neurons were then encountered over a maximal distance of 1 mm. They were identified using the following criteria: a slow (0.5-2.5 Hz) and regular firing rate and long-duration (0.8-1.2 ms) action potentials, with a positive-negative spike. Spikes were computed by using the Spike 2 software, so that the firing rate was calculated as the mean number of events occurring within a 10 s period. For each neuron, the discharge was monitored during 60 seconds. Each mouse received either spadin (10^−5 M in a 100 μl bolus) or its vehicle (saline). Starting 30 min after the injection, 3 to 4 successive descents were performed along the DRN, for a total of 4-8 cells recorded per animal. Recordings were performed for a maximal duration of 4 hours post-injection.

mice [1] = experiment: Porsolt Forced Swim Test (FST) in mice; settings: for reduced immobility time: acute, 30 min before test
Procedure: Mice (Janvier, France) were placed individually in cylinders (height: 30 cm, diameter: 15 cm) filled with 12 cm deep water (temperature: 22±1° C.) for 6 min. The total period of immobility was recorded during the last 4 min.

mice [2] = experiment: Corticosterone assay after tube restraint stress; settings: 30 min after 10 min tube restraint; spadin i.p. 10^-5 M
Procedure: Mice were individually housed for at least 12 hours before blood sample collection. Serum samples, collected in the morning were obtained by retroorbital puncture before and 30 min after the end of a 10-min tube restraint. Levels of corticosterone were measured by radioimmunoassay using a commercially available kit (MP Biomedicals).

mice [3] = experiment: Elevated plus-maze; settings: spadin i.p. 10^-5 M, diazepam i.p. 0.5 mg/kg
Text: Elevated plus-maze. The apparatus consisted of two open and two enclosed arms of the same size (45×5 cm) with walls 15 cm high. The arms, constructed of black acrylic, radiate from a common central platform (5×5 cm) to form a plus sign. Open arms were arranged opposite to one another, as were closed arms. The maze was elevated to a height of 45 cm above floor level. Each mouse was placed in the central platform facing one of the open arms. The number of entries into the open and closed arms and the time spent on the open and closed arms were recorded during a 5 min test period. Time spent in the unprotected open arms as well as the number of entries in open arms in relation to the total of arm entries are used as experimental indices of anxiety.

mice [4] = experiment: Light/dark exploration; settings: spadin i.p. 10^-5 M, diazepam i.p. 0.5 mg/kg
Procedure: The apparatus consisted of a cage (25×40×20 cm) divided into two compartments by a black partition containing a small opening that allows mouse to move from one compartment to the other. One compartment, comprising […] of the surface area, was made of white plastic and was brightly illuminated. The adjoining smaller compartment was black and dark. Mice were placed in the white compartment and allowed to move freely between the two chambers for 5 minutes. The number of transitions between the two compartments, time spent in the white chamber, and latency to the first transition were recorded. Mice tend to avoid the white compartment. Thus the measures of exploration in this area (time and entrances) were used as experimental indices of anxiety.

CREB = experiment: Total CREB and pCREB Western blotting of hippocampus; settings: 4-day treatment, i.p. 10^-5 M, hippocampus extracts
Procedure: Mouse brains were dissected on ice. Isolated hippocampi (1-2 mg wet tissue/100 μl) were homogenized in a solubilization buffer containing 20 mM HEPES (pH:7.9), 0.4 M NaCl, 20% (v/v) glycerol, 1% (v/v) Nonidet P-40, 5 mM MgCl2, 0.5 mM EDTA, 0.1 mM EGTA and protease inhibitor cocktail using a dounce homogenizer. The homogenates were centrifuged 30 min at 15,000×g at 4° C. Supernatants were stored at −70° C. until further use. Protein concentrations were measured using conventional Bradford's method. Samples ([…] proteins from each experimental group) were resuspended in SDS buffer, sonicated, boiled for 5 min before loading on 10% SDS PAGE gels and electrophoresed for 2 hours at 60 mA. Proteins were then transferred from gels onto Hybond-PVDF membranes (Amersham Biosciences) in blotting buffer (156 mM Tris, 1 M glycine, PBS) for 90 min at 80 mA and blocked with 5% skim milk (Regilait) in PBS for 2 hours at room temperature. […] Total CREB or tubulin contents were determined after stripping by using 1/1000 dilution of anti-CREB antibody (Cell Signaling Technology) and 1/1000 dilution of anti-tubulin antibody (Sigma-Aldrich). […] Relative intensities of the labeled bands were analyzed by densitometric scanning using Image) imaging system. CREB activation was expressed as the ratio between pCREB and total CREB present in each sample.

APLPRWSGPIGVSWGLR [spadin]
increase of DRN 5-HT neuron firing rate versus vehicle (DRN 5-HT neurons): 146%
mean firing rate of DRN 5-HT neurons (DRN 5-HT neurons): 3.1±0.7 Hz
reduced immobility time (mice [1]; i.c.v., 10^-7 M): 66.8%
reduced immobility time (mice [1]; i.p., 10^-8 M): 55.30%
reduced immobility time (mice [1]; i.v., 10^-6 M): 62.9%
reduction of time of immobility (mice [1]; chronic, 15 days, spadin 10^-6 M, fluoxetine 1 mg/kg): around 30%
effect in FST (mice [1]; injection in kcnk2-/- mice): did not induce any change
reduction of time spent immobile (mice [1]; subchronic, 4 days, spadin i.v. 10^-6 M, fluoxetine 3 mg/kg): 43.2%
reduction of stress-induced increase in corticosterone levels versus saline (mice [2]): 79.5%
time spent in the open arms (mice [3]): had no effect
number of light/dark transitions (mice [4]): did not make more transitions
stimulation of pCREB (quantification of blots) (CREB): 4 fold
